Laboratory results: US8012982B2, “Modulators of HCV replication” (priority 2004, dated 2011)
Like-named read-outs stand apart in the source and are kept apart here.

Columns and labels:
pHCVNeo17.m29 replicon = assay: microbe, parasite or virus in culture; format: cell-based; settings: Hepatitis C virus, read-out: Cmpd Ib IC50 (μM)
[1] = test system: pFL.m10 genomic replicon (adapted full length HCV genome); format: cell-based, HCV isolate Con1
[2] = test system: HCV replicons derived from the Con1 isolate in human HeLa cells; format: cell-based
[3] = test system: HCV replicons derived from the Con1 isolate in mouse hepatoma cell line Hepa1-6; format: cell-based
pHCVNeo17.wt replicon = format: cell-based; settings: for Replicon Activation Yes/No: pHCVNeo17.wt replicon in 10AIFN cells, cultured 4 days, Cell-ELISA
pHCVNeo17.RG replicon = assay: microbe, parasite or virus in culture; format: cell-based; settings: Hepatitis C virus, 96 h; subgenomic pHCVNeo17.RG, Con1, R2884G; 10AIFN cells, four days after transfection
[4] = test system: HCV replicon in resistant clone 10AB11; assay: microbe, parasite or virus in culture; format: cell-based; settings: Hepatitis C virus, Cell-ELISA, read-out: IC50 Compound (Ib)
pHCVNeo17.m35 replicon = format: cell-based; settings: replicon pHCVNeo17.m35: Y2065H
cell proliferation = settings: relative to concentrations effective on the replicon
pHCVNeo17.m36 replicon = assay: microbe, parasite or virus in culture; format: cell-based; settings: Hepatitis C virus; replicon pHCVNeo17.m36: K@2039, Y2065H; read-out: Cmpd Ib IC50
[5] = test system: HCV replicon in resistant clone 10AB2; assay: microbe, parasite or virus in culture; format: cell-based; settings: Hepatitis C virus, Cell-ELISA, read-out: IC50 Compound (Ib)
[6] = test system: non-adapted replicons derived from the BK isolate of HCV; format: cell-based
[7] = test system: HCV replicon in resistant clone 10AB3; assay: microbe, parasite or virus in culture; format: cell-based; settings: Hepatitis C virus, Cell-ELISA, read-out: IC50 Compound (Ib)
[8] = test system: HCV replicon in resistant clone 10AB7; assay: microbe, parasite or virus in culture; format: cell-based; settings: Hepatitis C virus, Cell-ELISA, read-out: IC50 Compound (Ib)
pHCVNeo17.m50 replicon = assay: microbe, parasite or virus in culture; format: cell-based; settings: Hepatitis C virus; replicon pHCVNeo17.m50: K@2039, R2129W; read-out: Cmpd Ib IC50
pHCVNeo17.m30 replicon = format: cell-based; settings: replicon pHCVNeo17.m30: H2057R
pHCVNeo17.SI replicon = assay: microbe, parasite or virus in culture; format: cell-based; settings: Hepatitis C virus, 96 h; subgenomic pHCVNeo17.SI, Con1, S2204I; 10AIFN cells, four days after transfection
pBK-RMSI replicon = assay: microbe, parasite or virus in culture; format: cell-based; settings: Hepatitis C virus, 96 h; subgenomic pBK-RMSI, BK, R1496M + S2204I; 10AIFN cells, four days after transfection
pHCVNeo17.m21 replicon = assay: microbe, parasite or virus in culture; format: cell-based; settings: Hepatitis C virus; replicon pHCVNeo17.m21: K@2039, S2404P; read-out: Cmpd Ib IC50
pHCVNeo17.m5 replicon = assay: microbe, parasite or virus in culture; format: cell-based; settings: Hepatitis C virus; replicon pHCVNeo17.m5: K@2039; read-out: Cmpd Ib IC50
[9] = relative to concentrations effective on the replicon
[10] = test system: HCV replicons in resistant cell clones; format: cell-based; settings: fold increase of IC50
pHCVNeo17.m10 replicon = assay: microbe, parasite or virus in culture; format: cell-based; settings: pHCVNeo17.m10 replicon in 10AIFN cells, cultured 4 days, Cell-ELISA, read-out: Replicon Inhibition Range IC50
[11] = test system: non-adapted full length Con1 genomes; format: cell-based; settings: lesser extent than with the corresponding replicons
[12] = test system: HCV replicon in HBI10A cells; assay: microbe, parasite or virus in culture; format: cell-based; settings: Hepatitis C virus
NS5A protein = NS5A protein (Hepatitis C virus genotype 1b, UniProt Q9WMX2, INS2039K); format: cell-based; settings: HBI10A cells, 2 μM compound (Ib), pulse-chase

For `CC(C)(C)OC(=O)N1CCN(c2ccc(C(=O)Nc3ccc(O)cc3)cc2)CC1` [Example 101, tert-butyl 4-(4-{[(4-hydroxyphenyl)amino]carbonyl}phenyl)piperazine-1-carboxylate], the IC50 (pHCVNeo17.m29 replicon) was greater than 2 µM, the “Inhibition of replication of an adapted full length HCV genome” value [1] was “inhibited with comparable potency” and the “Inhibition of HCV replicons in HeLa cells” value [2] was “inhibited with comparable potencies”. The “Inhibition of HCV replicons in Hepa1-6 cells” value [3] was “inhibited with comparable potencies”, the “Replicon Activation Yes/No” value (pHCVNeo17.wt replicon) was “Yes” and the “Cmpd Ib IC50 (μM)” value (pHCVNeo17.wt replicon; replicon pHCVNeo17.Wt, no mutations) was “^bactivation”. For the same molecule, the IC50 (pHCVNeo17.RG replicon) was less than 50 nM, the IC50 [4] was greater than 2000 nM and the “Cmpd Ib IC50 (μM)” value (pHCVNeo17.m35 replicon) was “No effect”. The “Inhibition of cell proliferation, 14C thymidine incorporation” value (cell proliferation) was “only at concentrations two orders of magnitude higher than those effective on the replicon”, the IC50 (pHCVNeo17.m36 replicon) was greater than 2000 nM and the IC50 [5] was greater than 2000 nM. The “Activation of replication of non-adapted BK replicons” value [6] was “activated replication”, the IC50 [7] was greater than 2000 nM and the IC50 [8] was greater than 2000 nM. The IC50 (pHCVNeo17.m50 replicon) was greater than 2000 nM, the “Cmpd Ib IC50 (μM)” value (pHCVNeo17.m30 replicon) was “activation” and the IC50 (pHCVNeo17.SI replicon) was 100 nM. The IC50 (pBK-RMSI replicon) was 650 nM, the IC50 (pHCVNeo17.m21 replicon) was 38 nM and the IC50 (pHCVNeo17.m5 replicon) was 100 nM. For the same molecule, the “Toxicity, MTT cytotoxicity assay” value [9] was “only at concentrations two orders of magnitude higher than those effective on the replicon”, the “IC50 in resistant cell clones relative to parental cells” value [10] was “at least ten times higher” and the IC50 (pHCVNeo17.m10 replicon; Hepatitis C virus, 96 h) was less than 1000 nM. The “Stimulation of replication of non-adapted full length Con1 genomes” value [11] was “stimulated replication”, the IC50 ([12]; HBI10A replicon cells, read-out: IC50, dose-dependent inhibition of HCV replication) was 120 ± 60 nM and the IC50 ([12]; parental clone HBI10A, Cell-ELISA, read-out: IC50 Compound (Ib)) was 100 ± 50 nM. The “Conversion of NS5A p56 into hyperphosphorylated p58” value (NS5A protein) was “the rate and the extent of conversion of the p56 into p58 were reduced”.

With `CC(C)(C)OC(=O)N1CCN(c2ccc(C(=O)Nc3cccc(Br)c3)cc2)CC1` [Example 103, tert-butyl 4-(4-{[(3-bromophenyl)amino]carbonyl}phenyl)piperazine-1-carboxylate] the “Replicon Activation Yes/No” value (pHCVNeo17.wt replicon) was “No” and the IC50 (pHCVNeo17.m10 replicon; Hepatitis C virus, 96 h) was less than 1000 nM.

In the case of `CC(=O)c1cccc(NC(=O)c2ccc(N3CCN(C(=O)OC(C)(C)C)CC3)cc2)c1` [Example 108, tert-butyl 4-(4-{[(3-acetylphenyl)amino]carbonyl}phenyl)piperazine-1-carboxylate], the “Replicon Activation Yes/No” value (pHCVNeo17.wt replicon) is reported as “No” and the IC50 (pHCVNeo17.m10 replicon; Hepatitis C virus, 96 h) is reported as greater than 1000 nM.

In the case of `CC(C)(C)OC(=O)N1CCN(c2ccc(C(=O)Nc3ccc(C(=O)c4ccccc4)cc3)cc2)CC1` [Example 112, tert-butyl 4-(4-{[(4-benzoylphenyl)amino]carbonyl}phenyl)piperazine-1-carboxylate], the “Replicon Activation Yes/No” value (pHCVNeo17.wt replicon) is reported as “No” and the IC50 (pHCVNeo17.m10 replicon; Hepatitis C virus, 96 h) is reported as less than 1000 nM.

In the case of `C=Cc1ccc(NC(=O)c2ccc(N3CCN(C(=O)OC(C)(C)C)CC3)cc2)cc1` [Example 115, tert-butyl 4-(4-{[(4-vinylphenyl)amino]carbonyl}phenyl)piperazine-1-carboxylate], the “Replicon Activation Yes/No” value (pHCVNeo17.wt replicon) is reported as “No” and the IC50 (pHCVNeo17.m10 replicon; Hepatitis C virus, 96 h) is reported as greater than 1000 nM.

For `CC(C)(C)OC(=O)N1CCN(c2ccc(C(=O)Nc3ccc(/C=C/c4ccc(O)cc4)cc3)cc2)CC1` [Example 116, tert-butyl 4-{4-[({4-[(E)-2-(4-hydroxyphenyl)vinyl]phenyl}amino)carbonyl]phenyl}piperazine-1-carboxylate], the “Replicon Activation Yes/No” value (pHCVNeo17.wt replicon) was “No” and the IC50 (pHCVNeo17.m10 replicon; Hepatitis C virus, 96 h) was less than 1000 nM.

With `CC(=O)Oc1ccc(NC(=O)c2ccc(N3CCN(C(=O)OC(C)(C)C)CC3)cc2)cc1` [Example 123, tert-butyl 4-[4-({[4-(acetyloxy)phenyl]amino}carbonyl)phenyl]piperazine-1-carboxylate] the “Replicon Activation Yes/No” value (pHCVNeo17.wt replicon) was “Yes” and the IC50 (pHCVNeo17.m10 replicon; Hepatitis C virus, 96 h) was less than 1000 nM.

In the case of `CC(C)COC(=O)N1CCN(c2ccc(C(=O)Nc3ccc(O)cc3)cc2)CC1` [Example 201, isobutyl 4-(4-{[(4-hydroxyphenyl)amino]carbonyl}phenyl)piperazine-1-carboxylate], the “Replicon Activation Yes/No” value (pHCVNeo17.wt replicon) is reported as “No” and the IC50 (pHCVNeo17.m10 replicon; Hepatitis C virus, 96 h) is reported as greater than 1000 nM.

In the case of `O=C(Nc1ccc(O)cc1)c1ccc(N2CCN(C(=O)OCc3ccccc3)CC2)cc1` [Example 216, benzyl 4-(4-{[(4-hydroxyphenyl)amino]carbonyl}phenyl)piperazine-1-carboxylate], the “Replicon Activation Yes/No” value (pHCVNeo17.wt replicon) is reported as “Yes” and the IC50 (pHCVNeo17.m10 replicon; Hepatitis C virus, 96 h) is reported as less than 1000 nM.

In the case of `CC(C)(C)NC(=O)N1CCN(c2ccc(C(=O)Nc3ccc(O)cc3)cc2)CC1` [Example 302, N-(tert-butyl)-4-(4-{[(4-hydroxyphenyl)amino]carbonyl}phenyl)piperazine-1-carboxamide], the “Replicon Activation Yes/No” value (pHCVNeo17.wt replicon) is reported as “Yes” and the IC50 (pHCVNeo17.m10 replicon; Hepatitis C virus, 96 h) is reported as less than 1000 nM.

In the case of `COc1ccc(CNC(=O)N2CCN(c3ccc(C(=O)Nc4ccc(O)cc4)cc3)CC2)cc1` [Example 303, 4-(4-{[(4-hydroxyphenyl)amino]carbonyl}phenyl)-N-(4-methoxybenzyl)piperazine-1-carboxamide], the “Replicon Activation Yes/No” value (pHCVNeo17.wt replicon) is reported as “Yes” and the IC50 (pHCVNeo17.m10 replicon; Hepatitis C virus, 96 h) is reported as less than 1000 nM.

In the case of `C[C@@H](NC(=O)N1CCN(c2ccc(C(=O)Nc3ccc(O)cc3)cc2)CC1)c1ccccc1` [Example 306, 4-(4-{[(4-hydroxyphenyl)amino]carbonyl}phenyl)-N-[(1R)-1-phenylethyl] piperazine-1-carboxamide], the “Replicon Activation Yes/No” value (pHCVNeo17.wt replicon) is reported as “No” and the IC50 (pHCVNeo17.m10 replicon) is reported as less than 1000 nM.

In the case of `O=C(Nc1ccc(O)cc1)c1ccc(N2CCN(C(=O)C3CCCCC3)CC2)cc1` [Example 401, 4-[4-(cyclohexylcarbonyl)piperazin-1-yl]-N-(4-hydroxyphenyl)benzamide], the “Replicon Activation Yes/No” value (pHCVNeo17.wt replicon) is reported as “No” and the IC50 (pHCVNeo17.m10 replicon; Hepatitis C virus, 96 h) is reported as less than 1000 nM.

With `CC(C)(C)C(=O)N1CCN(c2ccc(C(=O)Nc3ccc(O)cc3)cc2)CC1` [Example 403, 4-[4-(2,2-dimethylpropanoyl)piperazin-1-yl]-N-(4-hydroxyphenyl)benzamide] the “Replicon Activation Yes/No” value (pHCVNeo17.wt replicon) was “No” and the IC50 (pHCVNeo17.m10 replicon; Hepatitis C virus, 96 h) was less than 1000 nM.

With `O=C(Nc1ccc(O)cc1)c1ccc(N2CCN(S(=O)(=O)/C=C/c3ccccc3)CC2)cc1` [Example 503, N-(4-hydroxyphenyl)-4-(4-{[(E)-2-phenylvinyl]sulfonyl}piperazin-1-yl)benzamide] the “Replicon Activation Yes/No” value (pHCVNeo17.wt replicon) was “No” and the IC50 (pHCVNeo17.m10 replicon; Hepatitis C virus, 96 h) was greater than 1000 nM.

In the case of `CC(C)(C)OC(=O)N1CCC(c2ccc(C(=O)Nc3ccc(O)cc3)cc2)CC1` [Example 602, tert-butyl 4-(4-{[(4-hydroxyphenyl)amino]carbonyl}phenyl)piperidine-1-carboxylate], the “Replicon Activation Yes/No” value (pHCVNeo17.wt replicon) is reported as “No” and the IC50 (pHCVNeo17.m10 replicon; Hepatitis C virus, 96 h) is reported as greater than 1000 nM.

In the case of `CC(C)(C)OC(=O)N1CCN(c2ccc(NC(=O)c3ccc(O)cc3)cc2)CC1` [Example 603, tert-butyl 4-{4-[(4-hydroxybenzoyl)amino]phenyl}piperazine-1-carboxylate], the “Replicon Activation Yes/No” value (pHCVNeo17.wt replicon) is reported as “No” and the IC50 (pHCVNeo17.m10 replicon; Hepatitis C virus, 96 h) is reported as greater than 1000 nM.
